Measurements from patent US20240139167A1, “LYSOSOME-ASSOCIATED MEMBRANE PROTEIN TARGETING COMPOUNDS AND USES THEREOF” (HADASIT MEDICAL RESEARCH SERVICES AND DEVELOPMENT LTD., priority 2021, published 2024).

What was measured:
[1] = system: HC and APBD patient skin fibroblasts; assay: Seahorse ATP Rate Assay under glycogen burden; type: cell-based, human
Procedure: FIGS. 4A-4D include a bar graph of PAS staining for total glycogen in skin fibroblasts from different APBD patients (4A), images of PAS staining for total glycogen in APBD87 fibroblasts glucose-starved for 48 h (left), or glucose starved and then replenished for the last 24 h to induce glycogen burden (right) (4B), image acquisition was done by Nikon Eclipse Ti2 microscope using a 40×PlanFluor objective and CY3 filter; graph of image-based multiparametric phenotyping of APBD fibroblasts under 48 h glucose-starvation, or starvation and glucose replenishment as in 4B (4C), level of significance p=0.01; and bar graph of glycolytic and mitochondrial ATP production determined by Agilent's Seahorse machine and ATP rate assay kit (4D). Healthy control (HC) and APBD patient fibroblasts were untreated or treated with 10 μM Compound 1 for 48 h (chronic), or on assay for 20 min (acute). Readings were normalized to cell number as determined by Crystal Violet staining. Shown are mean and SD values based on n=6 repeats.
The RQ shift towards carbohydrate catabolism observed in vivo prompted the inventors to investigate whether carbohydrate catabolism is also up-modulated intracellularly. To that end, and especially since glycogen levels are highly versatile among fibroblasts derived from different APBD patients (FIG. 4A), the inventors first aimed at inducing a physiological glycogen overload, or glycogen burden condition, equivalent to the one found in tissues. […] Therefore, the inventors selected this glycogen burden condition to analyze catabolism at a cell level using an ATP Rate Assay (Agilent's Seahorse ATP Rate Assay). The results

[2] = molecular target: T1, deglycosylated luminal LAMP1 domain (Homo sapiens, UniProt P11279); assay: SPR with chemically deglycosylated LAMP1; type: binding
T1 construct: repeated the SPR experiments with a chemically deglycosylated luminal LAMP1 domain
T1 sequence (P11279 29-382): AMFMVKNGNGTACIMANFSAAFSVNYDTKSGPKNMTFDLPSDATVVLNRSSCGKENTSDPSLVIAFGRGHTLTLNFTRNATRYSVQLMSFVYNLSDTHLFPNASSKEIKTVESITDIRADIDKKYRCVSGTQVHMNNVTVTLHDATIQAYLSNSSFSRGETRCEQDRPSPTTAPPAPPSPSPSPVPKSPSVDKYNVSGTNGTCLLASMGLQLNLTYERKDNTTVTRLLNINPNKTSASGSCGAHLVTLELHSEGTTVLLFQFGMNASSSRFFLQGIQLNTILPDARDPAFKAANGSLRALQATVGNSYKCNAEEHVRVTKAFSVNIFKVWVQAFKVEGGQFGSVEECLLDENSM
Procedure: The inventors have investigated the mechanism of action of 144DG11. To that end, the inventors first decided to determine its molecular target. Nematic protein organization technique (NPOT, Inoviem, Ltd.) was applied to homogenates of APBD patient fibroblasts. The NPOT analysis has discovered protein hetero assemblies uniquely generated around 144DG11 only when it was added to the cell homogenates (FIG. 5A). The next step in this analysis has identified the interactome of protein targets interacting with 144DG11 in APBD patients' fibroblasts. […] Moreover, the inventors have tested by cellular thermal shift assay the specific interaction of 144DG11 with 6 of the 8 targets discovered by NPOT. […] This finding relates to a novel pathogenic hypothesis connecting cellular glycogen overload with glycogen trafficking to lysosomes via Starch Binding Domain containing Protein 1. To validate 144DG11's interaction with LAMP1, the inventors have used surface plasmon resonance (SPR) technology. […] The inventors hypothesized that this slow rate of association could be explained by inhibited diffusion of 144DG11 due to the bulky oligosaccharides at the glycosylation sites. […] In the search for a putative binding site for Compound 1 in LAMP1, the inventors have analyzed the N- and C-terminal subdomains of its luminal domain (residues A29-R195 and S217-D378, respectively), which have a similar topology. […]

[3] = system: Gbe^ys/ys mice; assay: Transmission electron microscopy of liver sections, lysosomal glycogen; type: in vivo; settings: 9.5 month old mice
Excerpt: FIGS. 6A-6E include bar graphs of autophagic flux, determined by the extent of lysosomal inhibitors-dependent increase in the ratio of lipidated to non-lipidated LC3 (LC3II/LC3I) (6A); representative TEM images of liver tissue from 9.5 month old Gbe^ys/ys mice treated with Compound 11, or 5% DMSO vehicle (6B), G: Glycogen (alpha particles) and polyglucosan (structures with variable electron densities), L: Lysosomes, M: Mitochondria; right panel: lysosomal glycogen stain was quantified by ImageJ “count particle” tool; micrograph of LAMP1 knocked down and control APBD primary skin fibroblasts treated or not with Compound 1 and lysosomal inhibitors (LI) and quantification of 3 experiments and results of Student's t-tests. *, p<0.1; **, p<0.05; ***, p<0.01 (6C); graphs of lysosomal pH changes determined in APBD primary fibroblasts transduced with lentiviruses encoding for GFP or GFP-shLAMP1 and treated or not with Compound 1 for 24 h and confocal microscope images of cells treated with Lysosensor and stained for PAS (6D); and bar graph of ATP production rate assay in LAMP1-KD and GFP (Control) cells treated for 24 h (chronic) or on assay (acute) with Compound 1 (6E).
Liver tissue was minced and fixed in a solution containing 2% paraformaldehyde, 2.5% glutaraldehyde (EM grade) in 0.1 M sodium cacodylate buffer pH 7.3 for 2 hours at RT, followed by 24 h at 4 ° C. […]

[4] = both HC and APBD fibroblasts, glycogen burden

## COCCN(Cc1sccc1C)C(=O)c1cc(C)nc(O)c1 [Compound 1]
[1]
  augmenting glycolytic contribution to ATP production: acute on assay supplementation vs 48 h pretreatment: more effective
[1]; [4]
  overall ATP production: increased
  relative contribution of glycolytic ATP production at the expense of mitochondrial (OxPhos) ATP production: increased
[2]
  binding to deglycosylated LAMP1: did not bind
[3]
  lysosomal glycogen in liver sections: decrease in lysosomal glycogen
